Data from patent US20260256670A1, “COMPOSITION CONTAINING PEPTIDES HAVING SKIN-LIGHTENING EFFECT” (REMEDI CO., LTD., priority 2022, published 2026).
Ends that are not written are not given here.

System: HaCaT cells
Assay: Cytotoxicity evaluation (CCK8 assay)
Format: cell-based
Details: serum-free medium, 24 hours
Experimental: HaCaT cells and B16F10 cells were cultured in a cell culture medium supplemented with 10% of fetal bovine serum (FBS) and antibiotic solution (100 units/ml penicillin, 100 μg/ml of streptomycin) in DMEM medium. The cells were cultured under conditions maintained at 37° C., 95% humidity, and 5% CO2, and when the cells were 70-80% adhered to the culture dish, they were treated with trypsin-EDTA and subcultured. HaCaT cells were distributed and cultured from Professor Tae-Yoon Kim of the College of Medicine, The Catholic University of Korea, and B16F10 cells were distributed and cultured from the Korean Cell Line Bank.
To evaluate the toxicity of RMNE1 in HaCaT skin cells, 3×10^4 of HaCaT cells were attached to a 96-well plate 12 hours ago. Thereafter, the cells were washed using serum-free DMEM medium and then treated with RMNE1 peptide at different concentrations in the serum-free medium. After 24 hours, the cells were washed a total of three times with serum-free medium, and then cell activity was measured using the CCK8 assay.

In the case of “DEQERRRRRGRTRVRSE [RMNE1, DEQERRRRRGRTRVRSE]”, the cytotoxicity is reported as “low cytotoxicity”.
